In brackets after ≈: the same amount, converted by molar mass. Where two headings read alike, the source gives them in different places.

For data set [1], the system named is S. aureus MW2. The data set can be described thus: Diamide assay (CFU reduction). It is filed as cell-based, Staphylococcus aureus. The settings on record: 3 h. How it is done: An overnight culture of S. aureus MW2 was inoculated in tryptic soy broth (TSB) media and grown with agitation. The cells were centrifuged, washed with PBS, and diluted to an OD600 0.4 (10^8 CFU/mL) in PBS. The cells were then treated with auranofin (0.5 µg/mL), AU1 (0.5 µg/mL), AU5 (0.5 µg/mL), and diamide (5 mM and 10 mM) alone or in combinations for 3 h at 37°C. The cells were then serially diluted and plated on tryptic soy agar (TSA) media and incubated at 37°C for 24 h. Colonies that grew on plates were enumerated to determine the effect of the drug and diamide on S. aureus.

Data set [2] concerns clinical isolates of S. aureus. The data set can be described thus: MIC against clinical isolates of S. aureus. Type of data set: cell-based. The settings on record: Staphylococcus aureus, read-out: MIC. How it is done:
Broth microdilution assays were carried out with 2 biological replicates, each in triplicate, Mueller–Hinton broth (MHB; BD Biosciences, Franklin Lakes, NJ, USA) with a total assay volume of 100 μL in 96-well plates (BD Biosciences, Franklin Lakes, NJ, USA). […] The initial bacterial inoculum was adjusted to OD600 0.06, 50 μL was, added to the test compounds, and then incubated at 35°C for 18 h. Post incubation, OD600 was measured using a Vmax microplate reader (Molecular Devices, San Jose, CA), and the lowest concentration of test compound that suppressed bacterial growth was reported as the MIC.
Isolates were tested as 2 biological replicates.

For data set [3], the system named is S. aureus MW2. The data set can be described thus: Broth microdilution MIC, S. aureus MW2. Type of data set: cell-based, Staphylococcus aureus. The settings on record: for MIC: S. aureus MW2 (MRSA), broth microdilution, 18 h. The protocol:
(§1) In vitro antibiotic susceptibilities were determined using the broth microdilution assay established by the Clinical and Laboratory Standards Institute ([Clinical and Laboratory Standards Institute, 2012]). Broth microdilution assays were carried out with 2 biological replicates, each in triplicate, Mueller–Hinton broth (MHB; BD Biosciences, Franklin Lakes, NJ, USA) with a total assay volume of 100 μL in 96-well plates (BD Biosciences, Franklin Lakes, NJ, USA). Two-fold serial dilutions of compounds were prepared at a range of 0.01– 64 μg/mL in 50 μL of MHB. The initial bacterial inoculum was adjusted to OD600 0.06, 50 μL was, added to the test compounds, and then incubated at 35°C for 18 h. Post incubation, OD600 was measured using a Vmax microplate reader (Molecular Devices, San Jose, CA), and the lowest concentration of test compound that suppressed bacterial growth was reported as the MIC. Broth culture from the MIC assay (10 μL) was plated on Mueller–Hinton agar (BD Biosciences, Franklin Lakes, NJ, USA), and colony-forming units (CFUs) were enumerated after overnight incubation at 37°C.
(Dilution methods test growth across graded concentrations, often in twofold steps.)

The next data set concerns the target S. aureus TrxR (Staphylococcus aureus, UniProt P66011). The data set can be described thus: TrxR (TrxB) enzymatic assay, DTNB to TNB conversion. The following applies: for TrxR enzymatic inhibitory activity (in words): DTNB to TNB conversion.
The subject of data set [4] is intracellular free thiols of S. aureus MW2. The experiment in a line: Thiol depletion assay. It is filed as cell-based, Staphylococcus aureus. The following applies: treated vs untreated cell lysate. The protocol:
S. aureus MW2 was treated for 15 min with the indicated (0.125, 0.25, 0.5, or 0.75 µg/mL) concentrations of auranofin, AU1, AU5, or ampicillin. After treatment bacteria were washed twice in PBS and then resuspended in 100 mM potassium phosphate, monobasic, pH 7.4, containing 1 mM ethylenediaminetetraacetic acid to promote lysis. Cells were incubated in the lysis solution for 30 min at 60°C and then vortexed briefly. The solution was centrifuged at 13,000 g for 10 min to collect cell debris. Lysate was collected and 50 μL was transferred to a 96-well plate. Thiols were quantified using the Fluorometric Thiol assay kit following the manufacturer’s instructions (Millipore Sigma, St. Louis, MO, USA). The fluorescence intensity was measured after a 30 min incubation time at λex = 490/λem = 535 nm using a Vmax plate reader.

A short description of data set [5]: Compound solubility in PBS. It is filed as physicochemical. The following applies: aqueous buffer, kinetic from dmso stock; PBS, 2 Hour; highest concentration with no detectable precipitate; read-out: Solubility Limit. How it is done: Compound solubility in PBS. Compound solubility was measured in PBS. Briefly, serial dilutions of test compounds were prepared in DMSO at 100x the final concentration. Test compound solutions were diluted 100-fold into PBS in a 96-well plate and mixed. After 2 h, the presence of precipitate was detected by measuring absorbance at 540 nm.

For the next data set, the system named is E. faecium ATCC E007. The data set can be described thus: Broth microdilution MIC, E. faecium. The following applies: Enterococcus faecium, ATCCE007; E. faecium ATCC E007; read-out: MIC. It is filed as cell-based, Enterococcus faecium. How it is done:
as §1

The subject of another data set is A. baumannii 17978. The experiment in a line: Broth microdilution MIC, A. baumannii. Type of data set: cell-based, Acinetobacter baumannii. The settings on record: Acinetobacter baumannii; A. baumannii 17978; read-out: MIC. The protocol:
as §1

The subject of a further data set is P. aeruginosa PA14. The data set can be described thus: Broth microdilution MIC, P. aeruginosa. It is filed as cell-based, Pseudomonas aeruginosa. The settings on record: Pseudomonas aeruginosa; P. aeruginosa PA14; read-out: MIC. How it is done:
as §1

The next data set concerns K. pneumoniae ATCC 77326. The experiment in a line: Broth microdilution MIC, K. pneumoniae. It is filed as cell-based, Klebsiella pneumonia. The settings on record: Klebsiella pneumoniae, ATCC77326; K. pneumoniae ATCC 77326; read-out: MIC. The protocol: as §1
The next data set deals with Enterobacter (EAE 2625). The data set can be described thus: Broth microdilution MIC, Enterobacter. It is filed as cell-based, Enterobacter spp. The following applies: Enterobacter (EAE 2625); read-out: MIC. How it is done: as §1

Chain of S. aureus TrxR (P66011 whole entry): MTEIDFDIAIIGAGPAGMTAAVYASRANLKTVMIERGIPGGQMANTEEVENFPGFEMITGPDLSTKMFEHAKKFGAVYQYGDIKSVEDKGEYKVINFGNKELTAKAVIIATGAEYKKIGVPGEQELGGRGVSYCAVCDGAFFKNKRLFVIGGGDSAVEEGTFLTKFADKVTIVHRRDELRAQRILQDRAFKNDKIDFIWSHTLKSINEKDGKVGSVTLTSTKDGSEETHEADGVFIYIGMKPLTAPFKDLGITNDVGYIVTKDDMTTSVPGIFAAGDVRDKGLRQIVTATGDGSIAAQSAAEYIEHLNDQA
Experimental for S. aureus TrxR: TrxR specific inhibitory activity was evaluated using 40 μL of S. aureus TrxR enzyme (0.5 μg/μL) per 200 mL of the reaction mixture for 15 minutes, comparing auranofin to other sulfur-containing compounds (all tested at 10 μg/mL), including known anti-S. aureus compounds.
For the screening assay, diluted TrxR assay buffer (Cayman Chemical, Ann Arbor, MI) (100 μL) was mixed with the investigational compounds (20 μL) in a 96 well-plate format and combined with Sa-TrxB (40 μL; 0.5 μg/mL), DTNB (20 μL) and NADPH (20 μL). The reaction entailed combining NADPH and Sa-TrxB with DTNB, which was converted to TNB, producing a yellow color.

Consider `CN(C)C(=O)/N=N/C(=O)N(C)C` [diamide], for which the “log CFU reduction” value is recorded as 1.5 log CFU in the data set with S. aureus MW2 [1] (diamide alone 5 mM) and “up to 2.6 log CFU” in the data set on S. aureus MW2 [1] (diamide alone 10 mM).
For `Cc1onc(-c2ccccc2)c1C(=O)N[C@@H]1C(=O)N2[C@@H]1SC(C)(C)[C@@H]2C(=O)O` [Oxacillin], the MIC (commonly the lowest concentration found to suppress growth) in data set [2] (isolate BFSA12) came to 0.5 µg/mL (≈ 1.25 µM); in [2] (isolate BFSA13), 1 µg/mL (≈ 2.49 µM); in [2] (isolate BFSA15) it was 0.25 µg/mL (≈ 0.623 µM); in data set [2] (isolate BFSA16), 0.25 µg/mL (≈ 0.623 µM); in [2] (isolate BFSA17), 0.125 µg/mL (≈ 0.311 µM); in [2] (isolate BFSA18), 0.5 µg/mL (≈ 1.25 µM). Besides, the MIC stood at 0.5 µg/mL (≈ 1.25 µM) in data set [2] (isolate BFSA19); 0.5 µg/mL (≈ 1.25 µM) in data set [2] (isolate BFSA20); 0.5 µg/mL (≈ 1.25 µM) in data set [2] (isolate BFSA21); 1 µg/mL (≈ 2.49 µM) in data set [2] (isolate BFSA22); 0.5 µg/mL (≈ 1.25 µM) in data set [2] (isolate BFSA24); 0.25 µg/mL (≈ 0.623 µM) in data set [2] (isolate BFSA26). For the same compound, the MIC in [2] (isolate BFSA29), in [2] (isolate BFSA30), in [2] (isolate BFSA31), in data set [2] (isolate BFSA32), in data set [2] (isolate BFSA33) and in data set [2] (isolate BFSA34) was over 8 µg/mL each time. In addition, the MIC in data set [2] (isolate BFSA35) is over 8 µg/mL; in data set [2] (isolate BFSA36) it was over 8 µg/mL; in data set [2] (isolate BFSA37) it was 0.25 µg/mL (≈ 0.623 µM); in [2] (isolate BFSA38) it was 0.25 µg/mL (≈ 0.623 µM); in [2] (isolate BFSA39), 0.25 µg/mL (≈ 0.623 µM); in data set [2] (isolate BFSA148), over 8 µg/mL. Moreover, the MIC in [2] (isolate BFSA149), in data set [2] (isolate BFSA150), in data set [2] (isolate BFSA151), in data set [2] (isolate BFSA152), in [2] (isolate BFSA153) and in data set [2] (isolate BFSA155) was over 8 µg/mL each time.
As for `CC(C)(C)c1ccc(S(=O)(=O)/C=C/CO)cc1` [D26], in the data set with S. aureus MW2 [3], the “anti-S. aureus activity (in words)” value was “not effective S. aureus inhibitors”. Besides, the “TrxR enzymatic inhibitory activity (in words)” value on S. aureus TrxR is “demonstrated inhibitory activity but required higher concentrations than AU1, AU5, or auranofin”.
For the compound `CC1(C)S[C@@H]2[C@H](NC(=O)[C@H](N)c3ccccc3)C(=O)N2[C@H]1C(=O)O` [ampicillin], the “impact on free thiols (in words)” value in data set [4] was “no impact”.
With `COC(=O)[C@H]1[C@H]2C[C@@H]3c4[nH]c5cc(OC)ccc5c4CCN3C[C@H]2C[C@@H](OC(=O)c2cc(OC)c(OC)c(OC)c2)[C@@H]1OC` [Reserpine], the solubility (as a rule, the dissolved amount per volume that the medium holds) at 2 h in data set [5] came to 7.81 µM (≈ 4.75 µg/mL).
Regarding `CCP(=O)(CC)CC` [C3, triethylphosphine oxide], the MIC in the data set with S. aureus MW2 [3] was over 128 µg/mL.
As to `COC(=O)/C=C/S(=O)(=O)c1ccc(C(C)(C)C)cc1` [D25], the “anti-S. aureus activity (in words)” value in the data set with S. aureus MW2 [3] is on record as “not effective S. aureus inhibitors”. The “TrxR enzymatic inhibitory activity (in words)” value on S. aureus TrxR is “did not inhibit”.
On to `CC(C)(C)c1ccc(S(=O)(=O)/C=C/C(N)=O)cc1` [D22], for which, in the data set with S. aureus MW2 [3], the “anti-S. aureus activity (in words)” value is listed as “not effective S. aureus inhibitors”. The “TrxR enzymatic inhibitory activity (in words)” value on S. aureus TrxR is “demonstrated inhibitory activity but required higher concentrations than AU1, AU5, or auranofin”.
In the data set with S. aureus MW2 [3], `CC(C)(C)c1ccc(S(=O)O)cc1` [C2, 4-tert-butylbenzenesulfinic acid] came in with an MIC of over 128 µg/mL.
Still for that read-out and setting: the same measure for `O=P(c1ccccc1)(c1ccccc1)c1ccccc1` [C4, Triphenylphosphine oxide]: over 128 µg/mL.
In the case of `CC(C)(C)c1ccc(S(=O)(=O)/C=C/C#N)cc1` [Bay11-7085], the MIC with S. aureus MW2 [3] (Staphylococcus aureus, read-out: MIC) is 4 µg/mL (≈ 16 µM); in the data set with E. faecium ATCC E007 it was 32 µg/mL (≈ 128 µM); in the data set on A. baumannii 17978 it was 64 µg/mL (≈ 257 µM); with P. aeruginosa PA14 it was over 64 µg/mL; in the data set with K. pneumoniae ATCC 77326 it was over 64 µg/mL; with Enterobacter (EAE 2625), over 64 µg/mL. For the same compound, on S. aureus TrxR (subscreen, after a 30 min incubation period, DMSO 0.483 ± 0.121), the “OD420 in TrxR enzymatic assay” value was 0.1094.
Consider `CC(C)(C)c1ccc(S)cc1` [C1, 4-tert-butylbenzenethiol], for which the MIC against S. aureus MW2 [3] was over 128 µg/mL.

The values above are taken from PMC11732138, “Gold complex compounds that inhibit drug-resistant Staphylococcus aureus by targeting thioredoxin reductase” (Frontiers in Antibiotics, 2023).
